Holding throughout (assay type): toxicity, cell-based
Data set [1] deals with U2OS. Description: Incucyte cell viability with U2OS. To be noted: human, 10 µM, compound concentration 10 uM.
The subject of data set [2] is Fibroblast. Description: Incucyte cell viability with human fibroblast. To be noted: 10 µM, compound concentration 10 uM.
Data set [3] deals with HEK-293T. Description: Incucyte cell viability with HEK293T. The conditions noted are these: human, 10 µM, compound concentration 10 uM.

Structures are written as SMILES.
Also: unitless GR value; below 1 slowed growth and below 0 cell loss.

Consider `CCc1ncnc(N2CCN(C(C)=O)CC2)c1C#Cc1ccc(N)nc1.Cl.Cl`, for which the “Growth Rate” value in data set [1] (0 h, replicate number 1) is listed as -0.47; in data set [1] (6 h, replicate number 1), 0.86; in data set [1] (12 h, replicate number 1), 0.73; in data set [1] (12 h, replicate number 2) it was 0.99; in data set [1] (18 h, replicate number 1) it was 0.73; in data set [1] (18 h, replicate number 2) it was 0.8. The “Growth Rate” value in data set [1] (24 h, replicate number 1) stood at 0.7; in data set [1] (24 h, replicate number 2), 0.68; in data set [2] (6 h, replicate number 2) it was 0.3; in data set [2] (12 h, replicate number 1), 0.68; in data set [2] (12 h, replicate number 2), 0.76; in data set [2] (18 h, replicate number 1), 0.66. Besides, the “Growth Rate” value in data set [2] (18 h, replicate number 2) was 0.52; in data set [2] (24 h, replicate number 1) it was 0.61; in data set [2] (24 h, replicate number 2) it was 0.53; in data set [3] (0 h, replicate number 2), -0.97; in data set [3] (6 h, replicate number 1) it was -0.05; in data set [3] (6 h, replicate number 2), -0.04. The “Growth Rate” value in data set [3] (12 h, replicate number 1) was 0.06; in data set [3] (12 h, replicate number 2) it was -0.05; in data set [3] (18 h, replicate number 1), 0.05; in data set [3] (18 h, replicate number 2), 0.01; in data set [3] (24 h, replicate number 1), 0.01; in data set [3] (24 h, replicate number 2) it was 0.02.

With `CCC(=O)O[C@]1(C(=O)CCl)[C@@H](C)C[C@H]2[C@@H]3CCC4=CC(=O)C=C[C@]4(C)[C@@]3(F)[C@@H](O)C[C@@]21C` [CLOBETASOL PROPIONATE], the “Growth Rate” value was -0.24 in data set [1] (0 h, replicate number 2); -0.15 in data set [1] (6 h, replicate number 1); 0.94 in data set [1] (6 h, replicate number 2); 0.77 in data set [1] (12 h, replicate number 1); 0.76 in data set [1] (12 h, replicate number 2); 0.92 in data set [1] (18 h, replicate number 1). Also, the “Growth Rate” value is given as 0.88 in data set [1] (18 h, replicate number 2); 0.83 in data set [1] (24 h, replicate number 1); 0.53 in data set [2] (6 h, replicate number 1); -1 in data set [2] (12 h, replicate number 1); 0.7 in data set [3] (6 h, replicate number 1); 1 in data set [3] (6 h, replicate number 2).

As to `Cc1cccc(-c2nn3c(c2-c2ccnc4ccc(C(N)=O)cc24)CCC3)n1` [GALUNISERTIB], the “Growth Rate” value in data set [1] (0 h, replicate number 1) is listed as -0.43; in data set [1] (0 h, replicate number 2) it was 0.64; in data set [1] (6 h, replicate number 1), 0.57; in data set [1] (12 h, replicate number 1), 0.66; in data set [1] (12 h, replicate number 2) it was 0.83; in data set [1] (18 h, replicate number 1) it was 0.75. Also, the “Growth Rate” value is on record as 0.87 in data set [1] (18 h, replicate number 2); 0.93 in data set [1] (24 h, replicate number 1); 0.76 in data set [1] (24 h, replicate number 2); -0.6 in data set [2] (0 h, replicate number 2); -0.5 in data set [3] (0 h, replicate number 1); 0.64 in data set [3] (6 h, replicate number 2). The “Growth Rate” value in data set [3] (12 h, replicate number 2) turned out to be 0.74; in data set [3] (18 h, replicate number 2), 0.73; in data set [3] (24 h, replicate number 2) it was 0.8.

With `CCCCc1oc2ccccc2c1C(=O)c1cc(I)c(OCCN(CC)CC)c(I)c1.Cl` [AMIODARONE HYDROCHLORIDE], the “Growth Rate” value in data set [1] (0 h, replicate number 1) is 0.24; in data set [1] (6 h, replicate number 1), 0.43; in data set [1] (12 h, replicate number 1), 0.98; in data set [1] (18 h, replicate number 1), 0.77; in data set [2] (0 h, replicate number 1), 0.24; in data set [2] (6 h, replicate number 2), -0.16. The “Growth Rate” value in data set [2] (12 h, replicate number 1) was 0.4; in data set [2] (12 h, replicate number 2) it was -0.27; in data set [2] (18 h, replicate number 1), -0.02; in data set [2] (18 h, replicate number 2), -0.44; in data set [2] (24 h, replicate number 1), -0.01; in data set [2] (24 h, replicate number 2), -0.43. The “Growth Rate” value in data set [3] (0 h, replicate number 2) was -0.99; in data set [3] (6 h, replicate number 1), 0.31; in data set [3] (6 h, replicate number 2) it was -0.04; in data set [3] (12 h, replicate number 1), 0.36; in data set [3] (12 h, replicate number 2), -0.11; in data set [3] (18 h, replicate number 1) it was 0.5. For the same compound, the “Growth Rate” value was determined as 0.1 in data set [3] (18 h, replicate number 2); 0.45 in data set [3] (24 h, replicate number 1); 0.24 in data set [3] (24 h, replicate number 2).

`C[C@]12CC[C@@H]3c4ccc(O)cc4CC[C@H]3[C@@H]1C[C@H]1OC(=O)C[C@]12O`: the “Growth Rate” value in data set [1] (0 h, replicate number 1) is 0.82; in data set [1] (0 h, replicate number 2), 0.2; in data set [1] (6 h, replicate number 1), 0.43; in data set [1] (6 h, replicate number 2), -0.19; in data set [1] (12 h, replicate number 1), 0.21; in data set [1] (12 h, replicate number 2) it was 0.26. In addition, the “Growth Rate” value in data set [1] (18 h, replicate number 1) was 0.38; in data set [1] (18 h, replicate number 2) it was 0.65; in data set [1] (24 h, replicate number 1) it was 0.6; in data set [1] (24 h, replicate number 2), 0.72; in data set [2] (0 h, replicate number 1) it was -1; in data set [2] (6 h, replicate number 1), 0.09. The “Growth Rate” value in data set [2] (6 h, replicate number 2) was -0.98; in data set [2] (12 h, replicate number 1), 0.52; in data set [2] (12 h, replicate number 2), -0.36; in data set [2] (18 h, replicate number 1) it was 0.55; in data set [2] (18 h, replicate number 2), 0.13; in data set [2] (24 h, replicate number 1), 0.77. In addition, the “Growth Rate” value in data set [2] (24 h, replicate number 2) is 0.48; in data set [3] (6 h, replicate number 1) it was 0.27; in data set [3] (12 h, replicate number 1), 0.37; in data set [3] (12 h, replicate number 2), 0.34; in data set [3] (18 h, replicate number 1), 0.36; in data set [3] (18 h, replicate number 2) it was 0.67. Further, the “Growth Rate” value was found to be 0.53 in data set [3] (24 h, replicate number 1) and 0.86 in data set [3] (24 h, replicate number 2).

Take `COc1c(-c2cn(C3CCC(=O)NC3=O)nn2)csc1C(=O)N1CCCC1` (stereo not drawn): the “Growth Rate” value in data set [1] (6 h, replicate number 1) is 0.89; in data set [1] (12 h, replicate number 1), 0.85; in data set [1] (18 h, replicate number 1), 0.92; in data set [2] (0 h, replicate number 1) it was -1; in data set [2] (6 h, replicate number 2), 0.73; in data set [2] (18 h, replicate number 2), 0.92. The “Growth Rate” value in data set [2] (24 h, replicate number 2) is 0.97; in data set [3] (0 h, replicate number 2), 0.78; in data set [3] (6 h, replicate number 1), 0.29; in data set [3] (6 h, replicate number 2) it was 0.71; in data set [3] (12 h, replicate number 1) it was 0.77; in data set [3] (12 h, replicate number 2), 0.89. Further, the “Growth Rate” value amounted to 0.73 in data set [3] (18 h, replicate number 1); 0.9 in data set [3] (18 h, replicate number 2); 0.9 in data set [3] (24 h, replicate number 1); 1 in data set [3] (24 h, replicate number 2).

Consider `Cc1cn([C@H](C)CC#N)c(=O)c2cc(Cn3nc(C(F)F)cc3Cl)nn12`, for which the “Growth Rate” value was 0.38 in data set [1] (6 h, replicate number 1); 0.34 in data set [1] (12 h, replicate number 1); 0.52 in data set [1] (18 h, replicate number 1); 0.64 in data set [1] (24 h, replicate number 1); -1 in data set [2] (0 h, replicate number 1); 0.89 in data set [2] (6 h, replicate number 1). Also, the “Growth Rate” value in data set [2] (6 h, replicate number 2) worked out at 0.78; in data set [2] (12 h, replicate number 2), 0.58; in data set [2] (18 h, replicate number 2), 0.99; in data set [2] (24 h, replicate number 1) it was 0.93; in data set [3] (6 h, replicate number 1) it was 0.81; in data set [3] (6 h, replicate number 2), 0.66. Further, the “Growth Rate” value was determined as 0.82 in data set [3] (12 h, replicate number 2); 0.9 in data set [3] (18 h, replicate number 2); 0.97 in data set [3] (24 h, replicate number 1); 0.89 in data set [3] (24 h, replicate number 2).

For the compound `CC1(C)OC(=O)c2ccc(Nc3ncc(-c4nnco4)c(N[C@H](CO)c4ccccc4)n3)cc21`, the “Growth Rate” value in data set [1] (0 h, replicate number 2) was -0.4; in data set [1] (12 h, replicate number 1), 0.78; in data set [1] (18 h, replicate number 1) it was 0.44; in data set [1] (18 h, replicate number 2), 0.69; in data set [1] (24 h, replicate number 1) it was 0.47; in data set [1] (24 h, replicate number 2), 0.62. Besides, the “Growth Rate” value is reported as -0.49 in data set [2] (0 h, replicate number 2); -1 in data set [2] (6 h, replicate number 1); 0.28 in data set [3] (0 h, replicate number 1); -0.28 in data set [3] (0 h, replicate number 2); 0.23 in data set [3] (12 h, replicate number 1); -0.01 in data set [3] (12 h, replicate number 2). Further, the “Growth Rate” value is on record as 0.12 in data set [3] (18 h, replicate number 1); -0.01 in data set [3] (18 h, replicate number 2); 0.09 in data set [3] (24 h, replicate number 1); -0.02 in data set [3] (24 h, replicate number 2).

For the compound `O=C1NC(=NCc2cccs2)SC1=Cc1ccc2ncccc2c1`, the “Growth Rate” value is -1 in data set [1] (0 h, replicate number 1); 0.68 in data set [1] (6 h, replicate number 1); 0.87 in data set [1] (6 h, replicate number 2); 0.27 in data set [1] (12 h, replicate number 1); 0.54 in data set [1] (12 h, replicate number 2); 0 in data set [1] (18 h, replicate number 1). Further, the “Growth Rate” value in data set [1] (18 h, replicate number 2) was 0.45; in data set [1] (24 h, replicate number 1), 0.51; in data set [1] (24 h, replicate number 2), 0.39; in data set [2] (0 h, replicate number 1), -1; in data set [2] (0 h, replicate number 2), -0.82; in data set [3] (0 h, replicate number 1), -1. The “Growth Rate” value in data set [3] (0 h, replicate number 2) is reported as -0.11; in data set [3] (12 h, replicate number 2) it was 0.83; in data set [3] (18 h, replicate number 1), 0.84; in data set [3] (18 h, replicate number 2), 0.53; in data set [3] (24 h, replicate number 1) it was 0.75; in data set [3] (24 h, replicate number 2), 0.54.

For the compound `Fc1ccc(Cl)cc1-c1nc(Nc2ccncc2)c2nccnc2n1`, the “Growth Rate” value in data set [1] (0 h, replicate number 1) was -0.59; in data set [1] (0 h, replicate number 2) it was 0.75; in data set [1] (6 h, replicate number 1), 0.78; in data set [1] (6 h, replicate number 2) it was 0.55; in data set [1] (12 h, replicate number 1), 0.86; in data set [1] (12 h, replicate number 2), 0.77. In addition, the “Growth Rate” value in data set [1] (18 h, replicate number 1) is 0.67; in data set [1] (18 h, replicate number 2), 0.87; in data set [1] (24 h, replicate number 1), 0.95; in data set [1] (24 h, replicate number 2), 0.75; in data set [2] (0 h, replicate number 2), -0.5; in data set [3] (0 h, replicate number 1) it was -0.93. The “Growth Rate” value in data set [3] (6 h, replicate number 2) is recorded as 0.79; in data set [3] (12 h, replicate number 2), 0.91.
